Assay results published in EPA's ToxValDB 9.5 (doi:10.2903/j.efsa.2010.1769).
Converted amounts (≈) assume the structure as drawn.

Legend:
Apis mellifera = conditions: acute, mortality
Canidae = conditions: chronic, duration: 1 years, oral, Dog Other
Danio rerio = conditions: acute; duration: 96 hours; mortality
Landoltia sp. = conditions: acute
Oncorhynchus mykiss = conditions: chronic/long-term; duration: 28 days
Aphidius rhopalosiphi = assay: LR50; higher = less toxic; conditions: not reported; mortality
Typhlodromus pyri = assay: LR50; higher = less toxic; conditions: not reported; mortality
Folsomia candida = conditions: chronic/long-term; reproduction

| Structure (SMILES) | LD50 (Apis mellifera; dermal) [µg/piece] | LD50 (Apis mellifera; oral, unspecified) [µg/piece] | NOAEL (Canidae) [mg/kg-day] | LOAEL (Canidae; clinical signs) [mg/kg-day] | LC50 (Danio rerio) [µg/mL] | LC50 (Daphnia magna; acute, duration: 96 hours, mortality) [µg/mL] | NOEC (Daphnia magna; chronic/long-term, duration: 21 days) [mg/L] | NOEC (Landoltia sp.) [µg/L] | NOEC (Oncorhynchus mykiss) [mg/L] | LD50 (Rattus norvegicus; acute, oral, mortality) [mg/kg] | NOAEL (Rattus norvegicus; reproduction developmental, reproduction) [mg/kg-day] | NOEC (Tagia sp.; acute) [mg/kg] | LC50 (Tagia sp.; acute, mortality) [mg/kg] | LR50 (Aphidius rhopalosiphi) [g/ha] | LR50 (Typhlodromus pyri) [g/ha] | NOEC (Folsomia candida) [mg/kg] | NOEC (Tagia sp.; chronic/long-term, duration: 56 days) [mg/kg] |
| --- | --- | --- | --- | --- | --- | --- | --- | --- | --- | --- | --- | --- | --- | --- | --- | --- | --- |
| CCc1cccc(C)c1N(COC(C)C)C(=O)CCl [Propisochlor] | > 100 | > 111 | 5 | 5 | 0.93 (≈ 3.28 µM) | 4.46 (≈ 15.7 µM) | 0.93 | 21 | 0.18 | 1920 | 10 | 62.5 | 248 | 20300 | 1500 | – | – |
| CCc1cccc(C)c1N(COC(C)C)C(=O)C(=O)O | – | – | – | – | – | – | – | – | – | – | – | – | – | – | – | > 1000 | – |
| CCc1cccc(C)c1NC(=O)CS(=O)(=O)O [2-(2-ethyl-6-methylanilino)-2-oxoethane-1-sulfonic acid] | – | – | – | – | – | – | – | – | – | – | – | – | – | – | – | > 1000 | 3.5 |
